The target of one test is T1, Human GnRH receptor (Homo sapiens, UniProt P30968).
T1 construct: expressed in transfected cells; host or cells: CHO (Chinese hamster ovary) cells, membrane fraction
T1 sequence (P30968 1-328): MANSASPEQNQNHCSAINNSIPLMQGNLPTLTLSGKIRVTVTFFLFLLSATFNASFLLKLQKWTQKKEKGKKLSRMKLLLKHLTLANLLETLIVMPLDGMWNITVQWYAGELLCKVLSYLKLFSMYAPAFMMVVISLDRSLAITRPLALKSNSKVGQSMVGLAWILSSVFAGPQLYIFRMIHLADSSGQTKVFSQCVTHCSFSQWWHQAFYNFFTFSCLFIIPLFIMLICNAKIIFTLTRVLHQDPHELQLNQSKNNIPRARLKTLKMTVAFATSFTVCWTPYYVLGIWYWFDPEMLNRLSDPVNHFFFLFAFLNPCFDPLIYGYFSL
The experiment in a line: ^125 I-leuprolerin binding inhibition, human GnRH receptor-expressed CHO cell membrane fraction. Conditions: 25° C. for 60 minutes, read-out: GnRH-receptor binding inhibitory activity (IC50, μM) Man. Here is the method:
A tube was filled with 10 μl of an aqueous solution of leuprolerin (3×10^4 M) and lactoperoxidase (0.01 mg/ml) followed by addition of 10 μl of Na^125 I solution (37 MBq). After stirring, 10 μl of 0.001% H2 O2 was added and the reaction was conducted at room temperature for 20 minutes. The reaction was stopped by adding 700 μl of 0.05% TFA and the reaction mixture was subjected to reversed-phase HPLC under the conditions set forth below. ^125 I-leuprolerin was eluted with a retention time of 26-27 minutes. […] To the sediment was added 10 ml of a cell homogenate buffer (10 mM NaHCO3, 5 mM EDTA, pH 7.5) and the mixture was homogenized using a Polytron homogenizer. The homogenate was centrifuged at 400 xg for 15 minutes and the supernatant was transferred to an ultracentrifuge cuvette and centrifuged at 100,000 xg for 1 hour to prepare a membrane fraction pellet. This pellet was suspended in 2 ml of the assay buffer and further centrifuged at 100,000 xg for 1 hour. The membrane fraction recovered as a pellet was resuspended in 20 ml of the assay buffer, distributed into vials, preserved at -80° C., and reconstituted before use. The rat and human membrane fractions prepared under (B) and (D) were respectively diluted with the assay buffer to make 200 μg/ml each and 188 μl aliquots of each dilution were distributed into tubes. The bovine membrane fraction prepared under (C) was diluted with the assay buffer to make 750 μg/ml and 188 μl aliquots of the dilution were distributed into tubes. When the rat anterior pituitary membrane fraction was used, 2 μl of 0.1 mM compound/60% dimethyl sulfoxide (DMSO) and 10 μl of 38 nM ^125 I-leuprolerin were concurrently added. […] For determination of maximum binding, a reaction mixture was prepared by adding 2 μl of 60% DMSO and 10 μl of 38 nM ^125 I-leuprolerin. For determination of non-specific binding, a reaction mixture was prepared using 2 μl of 100 μM leuprolerin/60% DMSO and 10 μl of […] ^125 I-leuprolerin. When the rat and bovine anterior pituitary membrane fractions were used, each reaction was carried out at 4° C. for 90 minutes. On the other hand, when the human GnRH receptor-expressed CHO cell membrane fraction was used, the reaction was conducted at 25° C. for 60 minutes. After completion of the reaction, the reaction mixture was suction-filtered through a polyethyleneimine-treated Whatman glass filter (GF-F) [trademark;whatman]. After filtration, the radioactivity of the residual ^125 I-leuprolerin on the filter was measured using a γ-counter. The computation formula of (TB-SB)/(TB-NSB)×100 (SB=radioactivity bound in the presence of the test compound, TB=maximum amount of radioactivity bound, NSB=amount of radioactivity nonspecifically bound) was calculated to find the binding inhibition rate for the test compound. Moreover, the inhibition rate was determined by varying the concentration of each test compound and the concentration of the compound causing 50% inhibition of binding (IC50 value) was calculated by Hill plot.

Another test has as its target T2, Rat GnRH Receptor (Rattus norvegicus, UniProt P30969).
T2 construct: from tissue; host or cells: anterior pituitary of male Wistar rats (8 weeks old), membrane fraction
T2 sequence (P30969 1-327): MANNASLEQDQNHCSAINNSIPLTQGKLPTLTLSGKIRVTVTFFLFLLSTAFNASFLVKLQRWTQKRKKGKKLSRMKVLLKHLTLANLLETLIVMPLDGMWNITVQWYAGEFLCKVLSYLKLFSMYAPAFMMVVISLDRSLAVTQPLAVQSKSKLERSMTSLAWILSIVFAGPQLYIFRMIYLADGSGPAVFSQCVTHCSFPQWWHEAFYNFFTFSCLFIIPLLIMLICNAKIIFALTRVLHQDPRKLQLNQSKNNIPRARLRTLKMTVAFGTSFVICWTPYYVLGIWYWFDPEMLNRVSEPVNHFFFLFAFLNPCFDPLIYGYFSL
As to the kind of experiment: ^125 I-leuprolerin binding inhibition, rat anterior pituitary membrane fraction. Conditions: 4° C. for 90 minutes, read-out: GnRH-receptor binding inhibitory activity (IC50, μM) Rat. Also noted: species or system rat (Wistar). Here is the method: A tube was filled with 10 μl of an aqueous solution of leuprolerin (3×10^4 M) and lactoperoxidase (0.01 mg/ml) followed by addition of 10 μl of Na^125 I solution (37 MBq). After stirring, 10 μl of 0.001% H2 O2 was added and the reaction was conducted at room temperature for 20 minutes. The reaction was stopped by adding 700 μl of 0.05% TFA and the reaction mixture was subjected to reversed-phase HPLC under the conditions set forth below. ^125 I-leuprolerin was eluted with a retention time of 26-27 minutes. Forty rats (8 weeks old, male) of Wistar strain were decapitated under no anesthesia and the anterior pituitary isolated from each animal was washed with an ice-cooled homogenate buffer (25 mM Tris (tris(hydroxylmethyl)aminomethane)-HCl, 0.3M sucrose, 1 mM EGTA (ethylene-bis(oxyethylenenitrilo)tetraacetic acid), 0.25 mM PMSF (phenylmethylsulfonyl fluoride), 10 U/ml aprotinin, 1 μg/ml pepstatin, 20 μg/ml leupeptin, 100 μg/ml phosphoramidon, 0.03% sodium azide; pH 7.5). The anterior pituitary was suspended in 2 ml of the same homogenate buffer as above and homogenized using a Polytron homogenizer. The homogenate thus prepared was centrifuged at 700 xg for 15 minutes and the supernatant was transferred to an ultracentrifuge cuvette and further centrifuged at 100,000 xg for 1 hour to provide a membrane fraction pellet. This pellet was suspended in 2 ml of an assay buffer (25 mM Tris-HCl, 1 mM ethylenediaminetetraacetic acid (EDTA), 0.1% bovine serum albumin (BSA), 0.25 mM PMSF, 1 μg/ml pepstatin, 20 μg/ml leupeptin, 100 μg/ml phosphoramidon, 0.03% sodium azide; pH 7.5) and centrifuged at 100,000 xg for 1 hour. The membrane fraction recovered as a pellet was resuspended in 10 ml of the same assay buffer as above, distributed into vials, preserved at -80° C., and reconstituted before use. The rat and human membrane fractions prepared under (B) and (D) were respectively diluted with the assay buffer to make 200 μg/ml each and 188 μl aliquots of each dilution were distributed into tubes. The bovine membrane fraction prepared under (C) was diluted with the assay buffer to make 750 μg/ml and 188 μl aliquots of the dilution were distributed into tubes. When the rat anterior pituitary membrane fraction was used, 2 μl of 0.1 mM compound/60% dimethyl sulfoxide (DMSO) and 10 μl of 38 nM ^125 I-leuprolerin were concurrently added. […] For determination of maximum binding, a reaction mixture was prepared by adding 2 μl of 60% DMSO and 10 μl of 38 nM ^125 I-leuprolerin. For determination of non-specific binding, a reaction mixture was prepared using 2 μl of 100 μM leuprolerin/60% DMSO and 10 μl of […] ^125 I-leuprolerin. When the rat and bovine anterior pituitary membrane fractions were used, each reaction was carried out at 4° C. for 90 minutes. On the other hand, when the human GnRH receptor-expressed CHO cell membrane fraction was used, the reaction was conducted at 25° C. for 60 minutes. After completion of the reaction, the reaction mixture was suction-filtered through a polyethyleneimine-treated Whatman glass filter (GF-F) [trademark;whatman]. After filtration, the radioactivity of the residual ^125 I-leuprolerin on the filter was measured using a γ-counter. The computation formula of (TB-SB)/(TB-NSB)×100 (SB=radioactivity bound in the presence of the test compound, TB=maximum amount of radioactivity bound, NSB=amount of radioactivity nonspecifically bound) was calculated to find the binding inhibition rate for the test compound. Moreover, the inhibition rate was determined by varying the concentration of each test compound and the concentration of the compound causing 50% inhibition of binding (IC50 value) was calculated by Hill plot.

Molecules are shown by their SMILES. Structures can show the parent of a compound that is named as a salt.

Take `COc1cc2c(cc1OC)CC1(CCCCN1CCCC(CCCNC(=O)Cc1ccc([N+](=O)[O-])cc1)(c1ccccc1)c1ccccc1)CC2` (stereo not drawn) [II-53, 3,4-Dihydro-6,7-dimethoxy-1'-{4,4-diphenyl-7-[(4-nitrophenylacetyl)amino]heptyl}spiro[naphthalene-2(1H),2'-piperidine] hydrochloride]: the IC50 on Human GnRH receptor amounted to 0.8 µM; at Rat GnRH Receptor, 0.01 µM.
As to `COc1cc2c(cc1OC)CC1(CCCCN1CCCC(CCCNC(=O)Cc1ccc(Cl)cc1)(c1ccccc1)c1ccccc1)CC2` (stereo not drawn) [II-51, 3,4-Dihydro-6,7-dimethoxy-1'-{4,4-diphenyl-7-[(4-chlorophenylacetyl)amino]heptyl}spiro[naphthalene-2(1H),2'-piperidine] hydrochloride], the concentration for half-maximal inhibition (IC50) at Human GnRH receptor is 0.08 µM; at Rat GnRH Receptor, 0.002 µM.
In the same order, the values of `COc1cc2c(cc1OC)CC1(CCCCN1CCCC(CCCNC(=O)Cc1ccccc1)(c1ccccc1)c1ccccc1)CC2` (stereo not drawn) [II-48, 3,4-Dihydro-6,7-dimethoxy-1'-[4,4-diphenyl-7-(phenylacetylamino)heptyl]spiro[naphthalene-2(1H),2'-piperidine] hydrochloride] are 0.2 µM and 0.002 µM.
Consider `COc1ccc(CC(=O)NCCCC(CCCN2CCCCC23CCc2cc(OC)c(OC)cc2C3)(c2ccc(F)cc2)c2ccc(F)cc2)cc1` (stereo not drawn) [II-68, 3,4-Dihydro-6,7-dimethoxy-1'-{4,4-bis(4-fluorophenyl)-7-[(4-methoxyphenylacetyl)amino]heptyl}spiro[naphthalene-2(1H),2'-piperidine] hydrochloride], for which the half-maximal inhibitory concentration (IC50) on Human GnRH receptor stood at 0.4 µM; on Rat GnRH Receptor it was 0.009 µM.
In the same order, the values of `COc1cc2c(cc1OC)CC1(CCCCN1CCCC(CCCNC(=O)Cc1ccc(F)cc1)(c1ccccc1)c1ccccc1)CC2` (stereo not drawn) [II-50, 3,4-Dihydro-6,7-dimethoxy-1'-{4,4-diphenyl-7-[(4-fluorophenylacetyl)amino]heptyl}spiro[naphthalene-2(1H),2'-piperidine] hydrochloride] are 0.08 µM and 0.0007 µM.
Taken in the same sequence, the figures for `COc1cc2c(cc1OC)CC1(CCCCN1CCCC(CCCNC(=O)Cc1ccsc1)(c1ccccc1)c1ccccc1)CC2` (stereo not drawn) [II-63, 3,4-Dihydro-6,7-dimethoxy-1'-{4,4-diphenyl-7-[(3-thienylacetyl)amino]heptyl}spiro[naphthalene-2(1H),2'-piperidine] hydrochloride] were 0.4 µM and 0.001 µM.
Regarding `COc1ccc2c(c1)CCC1(CCCCN1CCCC(CCCNC(C)=O)(c1ccccc1)c1ccccc1)C2` (stereo not drawn) [II-45, 1'-(7-Acetylamino-4,4-diphenylheptyl)-3,4-dihydro-6-methoxyspiro[naphthalene-2(1H),2'-piperidine] dihydrochloride], on Rat GnRH Receptor, the IC50 was 0.08 µM.
Regarding `COc1cccc2c1CC1(CCCCN1CCCC(CCCNC(C)=O)(c1ccccc1)c1ccccc1)CC2` (stereo not drawn) [II-44, 1'-(7-Acetylamino-4,4-diphenylheptyl)-3,4-dihydro-8-methoxyspiro[naphthalene-2(1H),2'-piperidine] dihydrochloride], the IC50 on Rat GnRH Receptor is 0.4 µM.
Same read-out and setting: under `COc1cc2c(cc1OC)CC(N(CCCC(CCCNC(C)=O)(c1ccccc1)c1ccccc1)Cc1ccccc1)CC2` (stereo not drawn) [II-43, 7-Acetylamino-1-{N-benzyl-N-[2-(6,7-dimethoxy-1,2,3,4-tetrahydronaphthyl)]amino}-4,4-diphenylheptane dihydrochloride] stands 0.2 µM; under `COc1cc2c(cc1OC)CC1(CCCCN1CCCC(CCCNC(=O)COc1ccccc1)(c1ccccc1)c1ccccc1)CC2` (stereo not drawn) [II-61, 3,4-Dihydro-6,7-dimethoxy-1'-{4,4-diphenyl-7-[(phenoxyacetyl)amino]heptyl}spiro[naphthalene-2(1H),2'-piperidine] hydrochloride], 0.01 µM.
With `COc1cc2c(cc1OC)CC1(CCCCN1CCCC(CCCNC(C)=O)(c1ccccc1)c1ccccc1)CC2` (stereo not drawn) [II-46, 1'-(7-Acetylamino-4,4-diphenylheptyl)-3,4-dihydro-6,7-dimethoxyspiro[naphthalene-2(1H),2'-piperidine] dihydrochloride], the IC50 on Rat GnRH Receptor turned out to be 0.003 µM.
Take `COc1ccc2c(c1)CCC1(CCCCN1CCCC(CCNC(C)=O)(c1ccccc1)c1ccccc1)C2` (stereo not drawn) [II-37, 3,4-Dihydro-6-methoxy-1'-(6-acetylamino-4,4-diphenylhexyl)spiro[naphthalene-2(1H),2'-piperidine] dihydrochloride]: the half-inhibitory concentration (IC50) on Rat GnRH Receptor is 0.3 µM.

Source of the values: patent US5633248A, “Amine compounds, their production and use” (priority 1994, dated 1997).
